These are literature values, as cited in patent publication US20040071803A1, “Process for preparation of anti-diabetic compositions from banyan bark” (priority 2002, published 2004).

In data set [1] the test system is alloxan induced diabetic rats. To be noted: single dose of 250 mg/kg or long term 100 mg/Kg/day; mild but not severe diabetes (Cherian et. al. 1992).

For `CC1OC(Oc2cc3c(O)cc(O)cc3[o+]c2-c2ccc(O)cc2)C(O)C(O)C1O` (stereo not drawn) [pelargonidin 3-0-α-rhamnoside], the “Antidiabetic effect in alloxan induced diabetic rats” value in data set [1] is listed as “antidiabetic effect”. As for “Leucocyanidin 3-0-β D-galactosyl cellobioside”, the “Antidiabetic effect in alloxan induced diabetic rats” value in data set [1] is listed as “antidiabetic effect”.

With bengalinoside, in the data set with alloxan diabetic rabbits (fasting blood glucose (FBG) of 250 mg/dl or above (Augusti 1975)), the “Effect on severely diabetic rabbits” value is “did not have any effect”. The “Hypoglycemic activity relative to tolbutamide” value in the data set on alloxan diabetic rabbits (normal and mildly diabetic rabbits (Augusti 1975)) is reported as “half as active as tolbutamide”.
